The text below walks through data of article PMC6332353, “New Sulphated Flavonoids from Wissadula periplocifolia (L.) C. Presl (Malvaceae)” (Molecules, 2015).

For assay [1], the system named is human glioma cancer cell line (UVW). The assay can be described thus: alamarBlue cytotoxicity assay, UVW cells. To be noted: tumour cell line, 24 h treatment, 0.4–100 µg/mL, mean ± SD. Type of assay: cell-based. The text has this:
(§1) All media and supplements were obtained from Invitrogen (Paisley, UK). The following human cell lines were used in the current study: the human glioma cancer cell line (UVW) previously described, the prostate carcinoma cell line (PC-3M), the normal prostate epithelial cell line (PNT2A), and the normal foreskin fibroblast cell line (Hs27). All cell lines were obtained from in house stocks (UVW) or from stocks purchased from the ATCC (Rockville, MD, USA) and are routinely genetically verified and confirmed as free from mycoplasma contamination. UVW, PNT2A, and Hs27 cells were maintained in Eagle’s Minimum Essential Medium (MEM), RPMI 1640 Medium, and Dulbecco’s Modified Eagle’s Medium (DMEM), respectively. All media were supplemented with 10% v/v fetal bovine serum, penicillin (100 units/mL), streptomycin (100 μg/mL), Fungizone (2.5 μg/mL of amphotericin B), and L-glutamine (2 mM). The PC-3M cells were cultured in the same MEM medium as described for UVW cells with the addition of 1% v/v MEM Non-essential Amino Acids Solution, 1% v/v MEM Vitamin Solution, and 1mM sodium pyruvate. The cells were cultured at 37 °C in a humidified atmosphere of 5% CO2.
(§2) Each sample tested was dissolved in DMSO at 50 mg/mL and kept at −20 °C until extract preparation was proceeded. For the biological assays, the samples were diluted in culture medium to get the selected concentrations. The toxicity of the flavonoids on UVW, PC-3M, PNT2A, and Hs27 cells was assessed by the fluorometric measurement of metabolic activity using the AlamarBlue assay (Invitrogen). Briefly, cells were seeded on 96-well culture plates (3.3 × 10^3cells/well). […] Fluorescence was measured on a micro plate fluorescence reader (Spectramax Gemini XS, Molecular Devices, Sunnyvale, CA, USA) using an excitation wavelength of 560 nm and an emission wavelength of 590 nm. Cell viability was calculated and plotted as the percentage of metabolically active cells relative to the control. […]
For orientation: Resazurin is reduced to fluorescent resorufin, in cell work by metabolically active cells.

In assay [2] the test system is prostate carcinoma cell line (PC-3M). The assay can be described thus: alamarBlue cytotoxicity assay, PC-3M cells. Format: cell-based. To be noted: Homo sapiens, tumour cell line, 24 h treatment, 0.4–100 µg/mL, mean ± SD.
Description: as §1, §2

For assay [3], the system named is normal prostate epithelial cell line (PNT2A). Nature of the assay: alamarBlue cytotoxicity assay, PNT2A cells. Format: cell-based. To be noted: Homo sapiens, 24 h treatment, 0.4–100 µg/mL, mean ± SD.
Description: as §1, §2

Assay [4] deals with normal foreskin fibroblast cell line (Hs27). The assay can be described thus: alamarBlue cytotoxicity assay, Hs27 cells. Format: cell-based. To be noted: Homo sapiens, 24 h treatment, 0.4–100 µg/mL, mean ± SD. The source says:
All media and supplements were obtained from Invitrogen (Paisley, UK). The following human cell lines were used in the current study: the human glioma cancer cell line (UVW) previously described, the prostate carcinoma cell line (PC-3M), the normal prostate epithelial cell line (PNT2A), and the normal foreskin fibroblast cell line (Hs27). All cell lines were obtained from in house stocks (UVW) or from stocks purchased from the ATCC (Rockville, MD, USA) and are routinely genetically verified and confirmed as free from mycoplasma contamination. UVW, PNT2A, and Hs27 cells were maintained in Eagle’s Minimum Essential Medium (MEM), RPMI 1640 Medium, and Dulbecco’s Modified Eagle’s Medium (DMEM), respectively. All media were supplemented with 10% v/v fetal bovine serum, penicillin (100 units/mL), streptomycin (100 μg/mL), Fungizone (2.5 μg/mL of amphotericin B), and L-glutamine (2 mM). […] The toxicity of the flavonoids on UVW, PC-3M, PNT2A, and Hs27 cells was assessed by the fluorometric measurement of metabolic activity using the AlamarBlue assay (Invitrogen). […] Fluorescence was measured on a micro plate fluorescence reader (Spectramax Gemini XS, Molecular Devices, Sunnyvale, CA, USA) using an excitation wavelength of 560 nm and an emission wavelength of 590 nm. Cell viability was calculated and plotted as the percentage of metabolically active cells relative to the control. […]

The subject of another assay is sarcoma 180. The arrangement: method as in earlier work. To be noted: tumours implanted in mice; cited from earlier work.
Assay [5] relates to carcinoma of Ehrlich tumours. The arrangement: method as in earlier work. To be noted: tumours implanted in mice; cited from earlier work.
The subject of a further assay is lung cancer A549. The arrangement: method as in PMID 25000464. To be noted: cited from earlier work.

The structures appear in SMILES notation. ≈ marks a conversion by molar mass, not a printed value. Where only a bound is given, the exact number is not on record here.

What is called IC50 is the midpoint of a concentration-inhibition curve. Low readings indicate higher potency, high ones lower potency. `COc1ccc(-c2cc(=O)c3c(O)cc(O)cc3o2)cc1` [acacetin]: the half-maximal inhibitory concentration (IC50) in assay [1] was 27.4 ± 1.09 mg/L (≈ 96.3 µM); in assay [2], 21.1 ± 1.16 mg/L (≈ 74.3 µM); in assay [3] it was 51.3 ± 1.09 mg/L (≈ 181 µM); in assay [4], greater than 100 mg/L.

Take `O=C(/C=C/c1ccc(O)cc1)OC[C@H]1O[C@@H](Oc2c(-c3ccc(O)cc3)oc3cc(O)cc(O)c3c2=O)[C@H](O)[C@@H](O)[C@@H]1O` [tiliroside, kaempferol-3-O-b-D-(6′′-E-p-coumaroyl) glucopyranoside]: the IC50 in assay [1] is greater than 100 mg/L; in assay [2], 60.5 ± 1.12 mg/L (≈ 102 µM); in assay [3] it was greater than 100 mg/L. For the same compound, the “tumour growth inhibition, sarcoma 180” value in the assay on sarcoma 180 is reported as “significantly inhibited the growth”. Also, the “tumour growth inhibition, carcinoma of Ehrlich” value in assay [5] is “significantly inhibited the growth”. The “toxic effects on A549 cells (in words)” value in the assay with lung cancer A549 is “toxic effects”.

On to `COc1ccc(-c2cc(=O)c3c(O)cc(OC)c(O)c3o2)cc1` [7,4′-di-O-methylisoscutellarein], for which the values for the concentration for half-maximal inhibition (IC50) in assay [1], in assay [2] and in assay [3] were 98.5 ± 1.13 mg/L (≈ 314 µM), greater than 100 mg/L and 88.7 ± 1.13 mg/L (≈ 282 µM), respectively.
